Data from patent publication US11628146B2, “Estrogen receptor ligand treatment for neurodegenerative diseases” (The Regents of the University of California, priority 2014, dated 2023).
“Also recorded” adds a separate entry of the source.

Assays:
EAE in NOD mice [1] = experiment: Rotarod testing in EAE, NOD mice; format: in vivo, mouse; set-up: key to Rotarod Score: n.s. = not significant; *p < 0.05; ***p = 0.0004; ****p < 0.0001; n.i. = not informative
Experimental: Rotarod Testing. Motor behavior was tested up to two times per week for each mouse using a rotarod apparatus (Med Associates Inc., St. Albans, Vt.). Briefly, animals were placed on a rotating horizontal cylinder for a maximum of 200 seconds. The amount of time the mouse remained walking on the cylinder, without falling, was recorded. Each mouse was tested on a speed of 3-30 rpm and given three trials for any given day. The three trials were averaged to report a single value for an individual mouse, and then averages were calculated for all animals within a given treatment group. The first two trial days prior to immunization (day 0), served as practice trials.

[2] = tested on: female C57BL/6 mice with EAE; experiment: In vivo longitudinal MRI of brain volumes in EAE; set-up: species or system mouse
Experimental: MRI Acquisition. Mice were anesthetized with isofluorane and their heads secured with bite and ear bars. Respiration rate was monitored and the mice were maintained at 37° C. using a circulating water pump. In vivo magnetic resonance imaging was performed using a 200 mm horizontal bore 7.0 T Bruker imaging spectrometer with a micro-imaging gradient insert with a maximum gradient strength of 100 G/cm and 30 mm birdcage RF coil (Bruker Instruments, Billerica, Mass.). An actively decoupled quadrature surface coil array was used for signal reception and a 72-mm birdcage coil was used for transmission. Images were acquired and reconstructed using ParaVision 5.1 software. Imaging parameters were as follows: rapid-acquisition with relaxation enhancement (RARE) sequence, matrix dimensions=256×128×64; field of view=3.84 cm×1.92 cm×0.96 cm; repetition time (TR)=3500 ms; apparent time to echo (apparent TE)=32 ms; echo train length=16; total scan time=37 mins. Spatial resolution was 150 μm^3 per voxel.
MRI Analysis. Images were skull-stripped using the Brain Surface Extractor (BSE) and residual non-brain signal was removed by a single operator manually editing the masks using BrainSuite 11a and bias-field inhomogeneities removed using the N3 correction. After inhomogeneity correction, a minimum deformation atlas (MDA) was produced. Images were spatially and intensity normalized to the MDA using a rigid-body transformation and an intensity rescaling cost function in Alignlinear (AIR). This process permits the comparison of images in a standard space correcting for both gross positional and intensity differences, yet preserving anatomically significant local changes. Following creation of this atlas, cerebral cortices and cerebella were manually labeled on the atlas. The labels were then warped onto the individual spatially normalized images to produce standardized estimates of gray matter volumes in individual subjects. All automated image processing was performed using the LONI Pipeline Processing Environment on an 8-processor core Mac Pro computer (Apple, Cupertino, Calif.).
Cerebral cortex and cerebellum labels were based on the Mouse Atlas Project 2003 mouse brain atlas. […] Importantly, this label contained the somatosensory regions (primary and secondary) and the motor cortex (primary and secondary). Additional anatomical information was obtained from the Franklin and Paxinos mouse brain atlas (Franklin and Paxinos, 2008).
Statistics. Global and regional brain volume changes in EAE mice and control animals were compared with repeated measures ANOVAs using SPSS 22 (IBM, Armonk, N.Y.). […] Regression analysis and Welch's t-tests were performed in Excel 2011 (Microsoft, Redmond, Wash.). All results are presented as mean±standard deviation.

EAE in NOD mice [3] = experiment: Standard EAE clinical score (0-5 scale), MOG-induced EAE, NOD mice; format: in vivo, mouse; set-up: key to Standard EAE Score: n.s. = not significant; *p < 0.05; ***p = 0.0004; ****p < 0.0001; n.i. = not informative; conditions: for Standard EAE Score: significance vs vehicle
Source text: Animals. C57BL/6 and NOD mice 8 weeks old were purchased from Jackson Laboratories (Bar Harbor, Me.). Animals were maintained under environmentally controlled conditions in a 12-hour light/dark cycle with access to food and water ad libitum. All procedures were done in accordance with the guidelines of the National Institutes of Health and the Chancellor's Animal Research Committee of the University of California, Los Angeles Office for the Protection of Research Subjects.
Reagents. AC-186 was dissolved in either Miglyol 812N liquid oil (Sasol North America) or sesame oil (Sigma Aldrich) as following concentration; 1.5 mg/mL for 3 mg/kg group, 5 mg/mL for 10 mg/kg group, and 15 mg/mL for 30 mg/kg group. Diarylpropionitrile (DPN, Tocris Biosciences) was dissolved in 10% molecular-grade ethanol and diluted with 90% of either Miglyol 812N liquid oil or sesame oil.
EAE and Treatments. Animals were injected subcutaneously with Myelin Oligodendrocyte Glycoprotein (MOG), amino acids 35-55 (200 μg/animal, American Peptides), emulsified in complete Freund's adjuvant (CFA) and supplemented with Mycobacterium tuberculosis H37ra (300 μg/animal, Difco Laboratories), over two sites drained by left inguinal and auxiliary lymph nodes in a total volume of 0.1 ml/mouse. One week later, a booster immunization was delivered over contra lateral lymph nodes. Pertussis toxin (500 ng/mouse) (List Biological Laboratories, Inc.) was injected intraperitoneally on days 0 and 2. Animals were monitored daily for EAE signs based on a standard EAE 0-5 scale scoring system: 0—healthy, 1—complete loss of tail tonicity, 2—loss of righting reflex, 3—partial paralysis, 4—complete paralysis of one or both hind limbs, and 5—moribund. Animals received 0.05 ml of either of 1.5, 5, 15 mg/mL AC-186, vehicle (sesame oil or Miglyol 812N liquid oil), or DPN (8 mg/kg/day) via subcutaneous injections every other day. Animals were treated with AC-186 or vehicle after EAE induction. Specifically, treatment was initiated at the first clear signs of clinical disease (EAE day 13-15), and continued to the endpoint of the experiment.

[4] = NOD F, AC186 10 mg/kg, miglylol vehicle
[5] = NOD F, AC186 30 mg/kg, miglylol vehicle
[6] = NOD F, AC186 30 mg/kg, sesame vehicle
[7] = NOD M, AC186 10 mg/kg, miglylol vehicle
[8] = NOD M, AC186 30 mg/kg, miglylol vehicle
[9] = 30 mg/kg every other day in miglyol, d0, d30, d60, vs vehicle-treated EAE

Oc1ccc(C2(c3ccccc3F)CCC(F)(F)CC2)cc1 [AC-186]
Rotarod Score (EAE in NOD mice [1]; [4]): n.i. | Rotarod Score (EAE in NOD mice [1]; [5]): n.i. | Rotarod Score (EAE in NOD mice [1]; [6]): n.i. | Rotarod Score (EAE in NOD mice [1]; [7]): n.i. | Rotarod Score (EAE in NOD mice [1]; [8]): n.i. | Rotarod times (EAE in NOD mice [1]; NOD males, AC-186 in miglyol, vs vehicle): no significant improvement in performance in the rotarod experiment | Cerebellar atrophy (volume loss) [2, 9]: decreased the amount of volume loss; also recorded: less cerebellar atrophy | Cerebral cortex atrophy [2, 9]: atrophy rates were decreased; also recorded: less atrophy in the cerebral cortex | Whole brain atrophy (whole brain volume decrease over time) [2, 9]: significantly smaller; also recorded: less brain atrophy | Volume of the whole cerebellum ([2]; AC-186 30 mg/kg treated EAE mice, d60, mean, SD 1.1 mm^3): 51.8 mm^3 | Volume of the cerebral cortex ([2]; AC-186 30 mg/kg treated EAE mice, d60, mean, SD 1.6 mm^3): 70.8 mm^3 | Volume of the whole brain ([2]; AC-186 30 mg/kg treated EAE mice, d60, mean, SD 7.0 mm^3): 483 mm^3 | Difference in cerebellum volume vs vehicle treated EAE mice ([2]; d60, vehicle 50.0 mm^3): 3.5% | Difference in cerebral cortex volume vs vehicle treated EAE mice ([2]; d60, vehicle 68.9 mm^3): 5.0% | Difference in whole brain volume vs vehicle treated EAE mice ([2]; d60, vehicle 478 mm^3): 2.7% | Standard EAE Score (EAE in NOD mice [3]; [4]): **** (****p < 0.0001) | Standard EAE Score (EAE in NOD mice [3]; [5]): **** (****p < 0.0001) | Standard EAE Score (EAE in NOD mice [3]; [6]): n.s. | Standard EAE Score (EAE in NOD mice [3]; [7]): n.s. | Standard EAE Score (EAE in NOD mice [3]; [8]): **** (****p < 0.0001) | EAE score (EAE in NOD mice [3]; NOD females, 10 mg/kg in miglyol, vs vehicle, 10 mg/kg): improved EAE scores; also recorded: better EAE scores | EAE score (EAE in NOD mice [3]; NOD females, 30 mg/kg in miglyol, vs vehicle, 30 mg/kg): improved EAE scores; also recorded: better EAE scores | EAE score (EAE in NOD mice [3]; NOD females, high dose AC-186 in sesame oil carrier): did not ameliorate EAE scores; also recorded: no protection was observed | EAE score (EAE in NOD mice [3]; NOD males, 10 mg/kg in miglyol, vs vehicle): not | EAE score (EAE in NOD mice [3]; NOD males, 30 mg/kg in miglyol, vs vehicle, 30 mg/kg): improved EAE scores; also recorded: ameliorated
